Experimental data: patent publication US20090042946A1, “METHOD AND KIT FOR C[…]” (priority 2003, published 2009)

Tested on: severed left femoral artery
Test: Severed femoral artery bleeding model in anesthetized mice, topical VRA by cotton-tipped applicator
Assay type: in vivo
Procedure: Approximately 4 to 6 week old white mice weighing about 20 grams were anesthetized using 50 microliters of anesthetic (ketamine+xylazine) intraperitoneally. The area near the inguinal region (1.75 cm proximal to the ankle) was shaved and a 0.5 to 1 cm incision was made such that the left femoral artery was severed. The incision was washed with normal saline. Control animals were treated with saline while test animals were treated with a VRA (alvinil) (approx. 500 microliters of a 0.8 mmol solution) administered topically with a cotton-tipped applicator soaked with the VRA solution over the wound. The applicator was then removed after 5 seconds and the wound was evaluated for signs of hemorrhage.
In the control mice, the wound was continuously flushed with saline.
In the treatment group of animals, the wound was treated with arvinil by swab application, then flushed once with saline. […] After 10 minutes, a second incision was made in the femoral artery above the previous cut resulting in severe hemorrhage.

For `CCCCC/C=C\C/C=C\C/C=C\C/C=C\CCCC(=O)NCc1ccc(O)c(OC)c1` [arvinil], the signs of shock (during the course of the experiment after topical treatment of the severed femoral artery) was “No signs of shock”, the “heart perfusion at euthanasia (KCl heart puncture)” value (end of experiment after topical treatment of both cuts) was “fully perfused” and the “bleeding from second incision in femoral artery after application” value (second incision above the previous cut after 10 minutes caused severe hemorrhage, topical application to the second cut) was “cessation of bleeding”. The “bleeding from severed femoral artery after treatment” value (swab application, approx. 500 microliters of 0.8 mmol solution, applicator removed after 5 seconds, observed following one saline flush) was “No bleeding was observed”.
